Source: PMC12002330 (Proceedings of the National Academy of Sciences of the …, 2025)
Where two headings read alike, the source gives them in different places. Blank lines part the entries; values can stand above or below the compound they belong to.

Key:
[1] = molecular target: NS4B/NS3 interaction (WT NS4B) (Dengue virus type 2, UniProt P14340); assay type: cell-based
DENV-2 NGC-Nluc = test: Antiviral assay using NGC-Nluc in Huh7 cells; assay type: cell-based
WT DENV-2 NS4B = WT DENV-2 NS4B (Dengue virus type 2, UniProt P29990); test: ITC binding of inhibitor to NS4B
[2] = molecular target: NS4B peptide 121-171 (cytosolic loop) (Dengue virus type 2, UniProt P29990); assay type: binding; conditions: aa 121 to 171
DENV-2 NGC strain (WT) = test: microbe, parasite or virus in culture; assay type: cell-based
four serotypes of DENV = conditions: cited from earlier work
[3] = molecular target: DENV-2 NS4B/NS3 interaction (Dengue virus type 2, UniProt P29990); assay type: binding
[4] = molecular target: recombinant WT ZIKV NS4B (ZIKV) (UniProt Q32ZE1); test: ITC
[5] = molecular target: recombinant DENV-2 NS4B (mature, full-length) with an N-terminal hexahistidine tag (DENV-2) (UniProt P14340); test: BLI
[6] = molecular target: recombinant DENV-2 NS4B (mature, full-length) with an N-terminal hexahistidine tag (DENV-2) (UniProt P14340); test: ITC

Chain of recombinant DENV-2 NS4B (mature, full-length) with an N-terminal hexahistidine tag (DENV-2) (P14340 2244-2491 limits assumed): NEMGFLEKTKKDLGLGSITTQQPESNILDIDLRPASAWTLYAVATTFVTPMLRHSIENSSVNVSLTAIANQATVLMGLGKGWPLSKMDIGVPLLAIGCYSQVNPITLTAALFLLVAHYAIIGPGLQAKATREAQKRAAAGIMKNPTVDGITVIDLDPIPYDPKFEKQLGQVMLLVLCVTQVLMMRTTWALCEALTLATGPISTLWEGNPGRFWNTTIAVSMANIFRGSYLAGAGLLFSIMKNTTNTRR
Chain of recombinant DENV-2 full-length NS3 (P14340 1476-2093 limits assumed): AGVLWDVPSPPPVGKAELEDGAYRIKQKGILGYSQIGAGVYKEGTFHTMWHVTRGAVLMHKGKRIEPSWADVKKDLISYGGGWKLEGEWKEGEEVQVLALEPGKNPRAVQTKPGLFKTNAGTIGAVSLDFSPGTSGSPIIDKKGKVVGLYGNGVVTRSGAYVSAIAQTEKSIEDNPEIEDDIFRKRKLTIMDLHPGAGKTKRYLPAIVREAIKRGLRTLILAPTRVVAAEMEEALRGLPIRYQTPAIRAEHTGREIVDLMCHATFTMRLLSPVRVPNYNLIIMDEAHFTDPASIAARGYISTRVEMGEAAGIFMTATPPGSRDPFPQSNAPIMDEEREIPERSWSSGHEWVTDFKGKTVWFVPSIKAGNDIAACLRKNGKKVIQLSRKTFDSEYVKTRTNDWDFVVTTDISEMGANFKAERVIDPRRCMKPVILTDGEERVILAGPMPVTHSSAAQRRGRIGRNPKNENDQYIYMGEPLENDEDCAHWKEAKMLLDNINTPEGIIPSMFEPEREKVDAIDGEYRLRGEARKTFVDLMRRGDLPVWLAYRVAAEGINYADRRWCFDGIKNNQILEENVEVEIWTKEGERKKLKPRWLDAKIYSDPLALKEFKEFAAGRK
Chain of DENV-2 NS4B/NS3 interaction (P29990 2244-2491): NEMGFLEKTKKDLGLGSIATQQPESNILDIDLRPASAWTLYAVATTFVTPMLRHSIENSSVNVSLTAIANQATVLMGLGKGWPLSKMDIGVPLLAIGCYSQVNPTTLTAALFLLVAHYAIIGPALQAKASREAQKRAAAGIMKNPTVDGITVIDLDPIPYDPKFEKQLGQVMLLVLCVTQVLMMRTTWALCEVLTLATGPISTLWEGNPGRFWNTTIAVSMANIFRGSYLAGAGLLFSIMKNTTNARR
Chain of NS4B/NS3 interaction (WT NS4B) (P14340 2244-2491): as the sequence (P14340 2244-2491 limits assumed) above
Chain of WT DENV-2 NS4B (P29990 2244-2491): as the sequence (P29990 2244-2491) above
Chain of NS4B peptide 121-171 (cytosolic loop) (P29990 2364-2414): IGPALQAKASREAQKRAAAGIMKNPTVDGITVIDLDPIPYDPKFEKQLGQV

decrease of NS3 co-IPed with NS4B ([1]; 10 nM JNJ-1802 added at 4 h posttransfection): 80%
decrease of NS3 co-IPed with NS4B ([1]; 10 nM JNJ-1802 added at 24 h posttransfection): 8%
EC50 (DENV-2 NGC-Nluc; Dengue virus, DENV2, Huh-7, 48 h): 0.031 nM
higher binding affinity to NS4B compared to NITD-688 (WT DENV-2 NS4B): 4.2 fold
binding to cytosolic loop of NS4B by ITC [2]: not the cytosolic loop
EC50 (DENV-2 NGC strain (WT); Dengue virus, DENV2, A549, 48 h, read-out: EC50 (averaged)): 0.019 nM
more inhibition of NS4B/NS3 interactions than NITD-688 ([3]; ITC assay): approximately 4 fold
inhibition of NS4B/NS3 binding ([3]; ITC, JNJ-1802 preincubated with NS4B): effectively inhibited
Compound: COc1cc(N[C@H](C(=O)c2c[nH]c3ccc(OC(F)(F)F)cc23)c2ccc(Cl)cc2OC)cc(S(C)(=O)=O)c1 [JNJ-1802]
higher potency in cellular assays than NITD-688 (DENV-2 NGC strain (WT)): ~ 100 fold
efficacy against four serotypes of DENV (four serotypes of DENV): picomolar to low nanomolar efficacy

Compound: C#C[C@@]1(O)[C@H](O)[C@@H](CO)O[C@H]1n1ccc2c(N)ncnc21 [NITD-008]
EC50 (DENV-2 NGC-Nluc; Huh7 cells): 380 nM

Compound: NS3 used in the ITC of ZIKV NS4B/NS3 interactions (enzyme)
Kd [4]: 3.4 µM

Compound: recombinant DENV-2 full-length NS3 (from UniProt P14340 1476-2093) (enzyme)
Kd [5]: 13 µM
fold increase of koff, 200 nM against 3.1 nM NITD-688 [5]: 2.6 fold
KD with NITD-688 (molar ratio to NS4B 1:2) [6]: 26.2 µM
KD with NITD-688 (molar ratio to NS4B 4:1) [6]: 594 µM
Kd [6]: 12.3 µM
